One assay has as its target T1, adenosine A2 receptor (Rattus norvegicus, UniProt P30543).
T1 construct: Brains were thawed and then kept on ice while the striata were dissected out; tissue Pel-Freez (Rogers, Ark.); host or cells: rat striatum (Sprague-Dawley brains; Long-Evans gave essentially identical results)
Description: Adenosine A2 receptor binding (RBA-2), displacement of [3H]NECA. The procedure: Brains from 200-500 g mixed sex Sprague-Dawley rats were purchased from Pel-Freez (Rogers, Ark.). […] Brains were thawed and then kept on ice while the striata were dissected out. […] The suspension was centrifuged at 50,000 xg for ten minutes, the supernatant discarded, the pellet resuspended in 10 vol ice-cold Tris as above, recentrifuged, resuspended at 1 g/5 ml, and stored in plastic vials at -70° C. […] When needed, tissue was thawed at room temperature, disrupted in a Polytron, and kept on ice until used.
All incubations were for 60 minutes at 25° C. in 12×75 mm glass tubes containing 1 ml Tris with 5 mg original tissue weight of rat weight of rat striatal membranes, 4 nM [^3 H]-N-ethyl adenosine-5'-carboxamide ([^3 H]NECA), 50 nM N^6 -cyclopentyladenosine (to eliminate A1 receptor binding), 10 mM MgCl2, 0.1 units/ml of adenosine deaminase and 1% dimethylsulfoxide. N^6 -Cyclopentyladenosine was dissolved at 10 mM in 0.02N HCl and diluted in Tris. […] Test compounds were dissolved at 10 mM in dimethylsulfoxide on the same day as the experiment, and diluted in dimethylsulfoxide to 100× the final incubation concentration. […] [^3 H]NECA was diluted to 40 nM in Tris. The membrane suspension (5 mg/0.79 ml) contained sufficient MgCl2 and adenosine deaminase to give 10 mM and 0.1 units/ml, respectively, final concentration in the incubation. […] After all additions, the rack of tubes was vortexed, and the tubes were then incubated for 60 min at 25° C. in a shaking water bath. The rack of tubes was vortexed an additional time halfway through the incubation.
Incubations were terminated by filtration through 2.4 cm GF/B filters under reduced pressure. Each tube was filtered as follows: the contents of the tube were poured onto the filter, 4 ml of ice-cold Tris were added to the tube and the contents poured onto the filter, and the filter was washed twice with 4 ml of ice-cold Tris. The filtration was complete in about twelve seconds.
Nonspecific binding was defined as binding in the presence of 100 μM N^6 -cyclopentyladenosine, and specific binding was defined as total binding minus nonspecific binding. The IC50 was calculated by weighted nonlinear least squares curve-fitting to the mass-action equation. [formula] where Y is cpm bound
T is cpm total binding without drug
S is cpm specific binding without drug
D is the concentration of drug and
K is the IC50 of the drug
Weighting factors were calculated under the assumption that the standard deviation was proportional to the predicted value of Y. Nonspecific binding was treated as a very large (infinite) concentration of drug in the computer analysis.

In another assay the test system is male Swiss-Webster mice. Description: Antiwrithing (AW) test, acetic acid. In kind it is in vivo. The following applies: Mus musculus, sc; subcutaneous, 20 minutes before acetic acid i.p.; read-out: ED50, suppression of writhing by 50% relative to vehicle controls. The procedure:
The antiwrithing (AW) test provides preliminary assessment of compounds with potential analgesic activity. The test is performed in male Swiss-Webster mice. Compounds are administered subcutaneously in aqueous 0.2% methylcellulose or other appropriate vehicles in volumes of 10 ml/kg. Dosages represent active moiety.
Acetic acid (0.6%, 10 ml/kg) is injected intraperitoneally 20 minutes after administration of the adenosine agonist. Writhing movements are counted for five minutes starting seven minutes after the acetic acid injection. Writhing is defined as abdominal constriction and stretching of the body and hind legs with concave arching of the back. Data are expressed as ED50 values, where the ED50 is the dose necessary to suppress writhing by 50% relative to vehicle controls. ED50 values are calculated by nonlinear regression analysis.

Setting [1] is: 4 nM [3H]NECA, 50 nM N6-cyclopentyladenosine, rat striatal membranes, read-out: RBA-2 (IC50, adenosine A2 receptor affinity).

Like-named read-outs stand apart in the source and are kept apart here.

T1 sequence (P30543 whole entry): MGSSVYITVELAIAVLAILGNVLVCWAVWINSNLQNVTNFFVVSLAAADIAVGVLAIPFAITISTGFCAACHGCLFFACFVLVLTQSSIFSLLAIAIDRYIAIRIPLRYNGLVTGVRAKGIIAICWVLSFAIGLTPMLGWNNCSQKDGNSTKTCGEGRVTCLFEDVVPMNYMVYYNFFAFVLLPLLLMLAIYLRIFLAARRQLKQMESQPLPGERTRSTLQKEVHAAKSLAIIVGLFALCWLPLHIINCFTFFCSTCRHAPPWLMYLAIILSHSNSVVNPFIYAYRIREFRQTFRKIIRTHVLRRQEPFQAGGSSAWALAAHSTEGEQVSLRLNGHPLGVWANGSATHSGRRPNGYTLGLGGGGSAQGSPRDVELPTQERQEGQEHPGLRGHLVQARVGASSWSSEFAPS

With `OCC(O)CNc1ncnc2c1ncn2[C@@H]1O[C@H](CO)[C@@H](O)[C@@H]1O` (stereo partly drawn) [Example 1, (R,S)-N^6 [2,3-Dihydroxypropyl]adenosine], the IC50 (commonly the concentration that gives 50% inhibition) at adenosine A2 receptor (setting [1]) was found to be 19 µM. Also, the ED50 (as a rule, the dose at which the effect has come halfway, by size or by number of responders) with male Swiss-Webster mice stood at 0.07 mg/kg. `OC[C@@H](O)CNc1ncnc2c1ncn2[C@@H]1O[C@H](CO)[C@@H](O)[C@H]1O` [Example 3] gave an IC50 on adenosine A2 receptor of 20 µM. For `CC1(C)OCC(CNc2ncnc3c2ncn3[C@@H]2O[C@H](CO)[C@@H](O)[C@H]2O)O1` (stereo partly drawn) [Example 4, (R,S)-N^6-[2,3Dihydroxypropylisopropylidene]adenosine], the IC50 at adenosine A2 receptor (setting [1]) turned out to be 24 µM. On the same count and under the same terms, to `CC1(C)OC[C@@H](CNc2ncnc3c2ncn3[C@@H]2O[C@H](CO)[C@@H](O)[C@H]2O)O1` [Example 5, (R)-N^6-[2,3-Dihydroxypropylisopropylidene]-adenosine] belongs 15 µM; to `Nc1nc(NCC(O)CO)c2ncn([C@@H]3O[C@H](CO)[C@@H](O)[C@H]3O)c2n1` (stereo partly drawn) [Example 8], 75 µM.
